Experimental data taken from PMC11050067, “Development of a Novel, Potent, and Selective Sialyltransferase Inhibitor for Suppressing Cancer Metastasis” (International Journal of Molecular Sciences, 2024).

How the values were obtained:
[1] = molecular target: T1, ST3GAL3 (Homo sapiens, UniProt Q11203); assay: phosphatase-coupled sialyltransferase activity assay (EA002 kit) with recombinant enzyme; type: biochemical
T1 construct: recombinant Human ST3GAL3 (R&D systems #10554-GT)
T1 sequence (Q11203 1-375): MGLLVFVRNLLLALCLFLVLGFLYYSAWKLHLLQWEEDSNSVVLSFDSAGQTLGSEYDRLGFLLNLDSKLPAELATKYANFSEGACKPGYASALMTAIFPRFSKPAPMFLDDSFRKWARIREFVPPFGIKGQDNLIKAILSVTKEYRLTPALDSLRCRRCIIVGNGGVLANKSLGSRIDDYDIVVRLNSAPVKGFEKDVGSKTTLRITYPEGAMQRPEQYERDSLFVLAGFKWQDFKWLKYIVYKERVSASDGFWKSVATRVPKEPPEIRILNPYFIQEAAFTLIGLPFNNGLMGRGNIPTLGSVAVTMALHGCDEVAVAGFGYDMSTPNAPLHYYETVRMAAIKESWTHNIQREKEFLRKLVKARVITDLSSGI

[2] = molecular target: T2, ST6GAL1 (Homo sapiens, UniProt P15907); assay: HPLC assay of sialylation of Galβ[…]-4GlcNAc with CMP-Neu5Ac by recombinant enzyme; type: biochemical
T2 construct: recombinant Human ST6GAL1 (R&D systems #7620-GT)
T2 sequence (P15907 27-406): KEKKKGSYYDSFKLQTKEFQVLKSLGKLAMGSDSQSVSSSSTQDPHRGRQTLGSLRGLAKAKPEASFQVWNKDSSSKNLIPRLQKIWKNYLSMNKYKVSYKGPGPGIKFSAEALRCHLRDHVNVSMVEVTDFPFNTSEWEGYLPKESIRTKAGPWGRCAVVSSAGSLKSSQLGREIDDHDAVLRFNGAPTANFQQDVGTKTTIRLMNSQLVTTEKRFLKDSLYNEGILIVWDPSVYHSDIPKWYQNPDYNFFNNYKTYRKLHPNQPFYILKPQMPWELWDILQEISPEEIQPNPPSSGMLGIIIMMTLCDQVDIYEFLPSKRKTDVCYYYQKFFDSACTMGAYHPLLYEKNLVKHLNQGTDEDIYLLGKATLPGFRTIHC

IC50 [1]: 9.45 ± 0.11 µM | IC50 [2]: 7.76 ± 0.06 µM
SMILES: C[C@H](CCC(=O)OCCOCCOCCN=[N+]=[N-])C1CCC2C3CC[C@@H]4C[C@H](NC(=O)[C@H](CC(=O)O)Nc5ccc([N+](=O)[O-])c6nonc56)CC[C@]4(C)C3CC[C@@]21C (some centres unmarked) [FCW393]
